Assays:
Test in all cases: KINOMEscan competition binding
Settings in all cases: compound 2.0 µM
ACVR1B (human) = ACVR1B (human) (UniProt P36896)
BMX (human) = BMX (human) (UniProt P51813)
CAMK4 (human) = CAMK4 (human) (UniProt Q16566)
CDC42BPA (human) = CDC42BPA (human) (UniProt Q5VT25)
CDK8 (human) = CDK8 (human) (UniProt P49336)
CDKL1 (human) = CDKL1 (human) (UniProt Q00532)
CHEK1 (human) = CHEK1 (human) (UniProt O14757)
CHUK (human) = CHUK (human) (UniProt O15111)
CSNK1D (human) = CSNK1D (human) (UniProt P48730)
CSNK1E (human) = CSNK1E (human) (UniProt P49674)
CSNK2A1 (human) = CSNK2A1 (human) (UniProt P68400)
DSTYK (human) = DSTYK (human) (UniProt Q6XUX3)
DSTYK (human), sequence (Q6XUX3 whole entry, looked up): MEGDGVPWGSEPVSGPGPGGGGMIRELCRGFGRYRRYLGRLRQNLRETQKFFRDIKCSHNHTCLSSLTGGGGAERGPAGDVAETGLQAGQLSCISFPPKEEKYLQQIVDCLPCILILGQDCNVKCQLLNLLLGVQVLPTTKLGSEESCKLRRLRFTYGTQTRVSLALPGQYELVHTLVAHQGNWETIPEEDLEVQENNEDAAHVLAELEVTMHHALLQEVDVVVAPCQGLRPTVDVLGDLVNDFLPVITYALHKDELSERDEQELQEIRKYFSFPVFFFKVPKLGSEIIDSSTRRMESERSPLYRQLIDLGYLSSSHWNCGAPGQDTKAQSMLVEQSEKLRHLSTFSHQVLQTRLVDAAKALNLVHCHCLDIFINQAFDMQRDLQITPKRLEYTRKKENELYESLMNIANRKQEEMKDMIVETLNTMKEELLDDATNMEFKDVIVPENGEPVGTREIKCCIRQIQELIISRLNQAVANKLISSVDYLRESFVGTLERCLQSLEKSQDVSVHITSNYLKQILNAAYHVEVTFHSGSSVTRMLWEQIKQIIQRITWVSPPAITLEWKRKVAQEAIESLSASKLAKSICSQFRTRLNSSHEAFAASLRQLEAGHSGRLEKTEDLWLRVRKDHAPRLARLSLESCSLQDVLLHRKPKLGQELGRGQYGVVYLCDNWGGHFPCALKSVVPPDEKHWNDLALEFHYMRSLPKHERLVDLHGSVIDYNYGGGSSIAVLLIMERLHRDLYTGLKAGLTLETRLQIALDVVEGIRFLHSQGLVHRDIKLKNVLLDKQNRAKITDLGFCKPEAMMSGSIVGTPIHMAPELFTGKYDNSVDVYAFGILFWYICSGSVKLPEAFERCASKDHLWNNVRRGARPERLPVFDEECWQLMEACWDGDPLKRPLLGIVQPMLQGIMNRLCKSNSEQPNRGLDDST

DYRK2 (human) = DYRK2 (human) (UniProt Q92630)
[1] = system: EGFR (human), P00533 [746-750 del]
EGFR (human), P00533 [746-750 del], sequence (P00533 whole entry, looked up, stated change not applied): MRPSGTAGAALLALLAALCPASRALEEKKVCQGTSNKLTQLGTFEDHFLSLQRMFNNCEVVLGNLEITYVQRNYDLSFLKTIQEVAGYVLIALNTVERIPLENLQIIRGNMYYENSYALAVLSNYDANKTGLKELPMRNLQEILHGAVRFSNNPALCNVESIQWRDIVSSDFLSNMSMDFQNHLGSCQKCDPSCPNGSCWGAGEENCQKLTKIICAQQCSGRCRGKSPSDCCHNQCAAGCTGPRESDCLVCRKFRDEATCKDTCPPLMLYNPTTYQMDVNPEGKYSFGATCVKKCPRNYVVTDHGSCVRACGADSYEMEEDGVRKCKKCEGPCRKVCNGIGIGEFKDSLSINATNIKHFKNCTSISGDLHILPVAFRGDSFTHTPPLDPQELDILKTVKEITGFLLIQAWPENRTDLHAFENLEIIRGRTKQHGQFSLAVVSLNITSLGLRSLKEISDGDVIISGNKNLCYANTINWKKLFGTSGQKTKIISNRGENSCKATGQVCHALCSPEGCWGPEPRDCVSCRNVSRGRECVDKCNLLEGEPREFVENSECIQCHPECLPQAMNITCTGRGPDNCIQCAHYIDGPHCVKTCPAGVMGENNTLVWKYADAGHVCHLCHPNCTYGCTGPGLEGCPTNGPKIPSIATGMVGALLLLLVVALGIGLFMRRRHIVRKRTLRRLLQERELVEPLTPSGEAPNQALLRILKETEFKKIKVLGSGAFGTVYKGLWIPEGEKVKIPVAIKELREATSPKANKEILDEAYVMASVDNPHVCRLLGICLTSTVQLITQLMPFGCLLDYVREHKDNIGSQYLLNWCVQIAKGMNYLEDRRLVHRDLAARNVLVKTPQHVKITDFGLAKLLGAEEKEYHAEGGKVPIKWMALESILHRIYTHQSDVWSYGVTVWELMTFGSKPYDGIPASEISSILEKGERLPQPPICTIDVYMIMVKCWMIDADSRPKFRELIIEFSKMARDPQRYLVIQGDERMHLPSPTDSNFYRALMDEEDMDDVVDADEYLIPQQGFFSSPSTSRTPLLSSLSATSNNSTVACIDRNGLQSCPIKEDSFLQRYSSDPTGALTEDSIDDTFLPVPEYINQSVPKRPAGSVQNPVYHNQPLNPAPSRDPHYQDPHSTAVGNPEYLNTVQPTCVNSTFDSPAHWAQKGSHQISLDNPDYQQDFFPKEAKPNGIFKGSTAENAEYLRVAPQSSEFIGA

[2] = system: FLT3 (human), P36888 [ITD]
[3] = system: FLT3 (human), P36888 [R834Q]
HCK (human) = HCK (human) (UniProt P08631)
HCK (human), sequence (P08631 whole entry, looked up): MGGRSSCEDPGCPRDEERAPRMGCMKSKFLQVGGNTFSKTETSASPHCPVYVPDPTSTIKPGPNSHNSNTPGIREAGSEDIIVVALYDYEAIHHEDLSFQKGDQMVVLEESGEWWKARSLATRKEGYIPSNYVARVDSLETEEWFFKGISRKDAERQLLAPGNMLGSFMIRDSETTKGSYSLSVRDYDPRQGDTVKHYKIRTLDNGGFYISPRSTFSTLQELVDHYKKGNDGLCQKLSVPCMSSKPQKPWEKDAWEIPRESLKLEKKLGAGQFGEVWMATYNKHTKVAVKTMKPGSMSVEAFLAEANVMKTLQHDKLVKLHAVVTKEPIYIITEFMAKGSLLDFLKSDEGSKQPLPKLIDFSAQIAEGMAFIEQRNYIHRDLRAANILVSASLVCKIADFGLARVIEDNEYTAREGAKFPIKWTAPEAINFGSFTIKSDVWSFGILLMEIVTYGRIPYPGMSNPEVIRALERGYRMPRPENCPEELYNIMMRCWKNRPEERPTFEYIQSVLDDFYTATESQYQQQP

HIPK4 (human) = HIPK4 (human) (UniProt Q8NE63)
IRAK3 (human) = IRAK3 (human) (UniProt Q9Y616)
[4] = system: KIT (human), P10721 [V559D]
LTK (human) = LTK (human) (UniProt P29376)
MAP2K3 (human) = MAP2K3 (human) (UniProt P46734)
MET (human) = MET (human) (UniProt P08581)
MKNK1 (human) = MKNK1 (human) (UniProt Q9BUB5)
MLTK (human) = MLTK (human) (UniProt Q9NYL2)
NTRK2 (human) = NTRK2 (human) (UniProt Q16620)
PDGFRA (human) = PDGFRA (human) (UniProt P16234)
PDPK1 (human) = PDPK1 (human) (UniProt O15530)
PHKG2 (human) = PHKG2 (human) (UniProt P15735)
[5] = system: PIK3CA (human), P42336 [E545A]
[6] = system: PIK3CA (human), P42336 [M1043I]
PIP4K2B (human) = PIP4K2B (human) (UniProt P78356)
PIP4K2C (human) = PIP4K2C (human) (UniProt Q8TBX8)
PIP5K1A (human) = PIP5K1A (human) (UniProt Q99755)
PRKACA (human) = PRKACA (human) (UniProt P17612)
PRKCD (human) = PRKCD (human) (UniProt Q05655)
[7] = system: RET (human), P07949 [V804M]
RIOK2 (human) = RIOK2 (human) (UniProt Q9BVS4)
SGK110 (human) = SGK110 (human) (UniProt P0C264)
STK24 (human) = STK24 (human) (UniProt Q9Y6E0)
STK38L (human) = STK38L (human) (UniProt Q9Y2H1)
STK4 (human) = STK4 (human) (UniProt Q13043)
TESK1 (human) = TESK1 (human) (UniProt Q15569)
TESK1 (human), sequence (Q15569 whole entry, looked up): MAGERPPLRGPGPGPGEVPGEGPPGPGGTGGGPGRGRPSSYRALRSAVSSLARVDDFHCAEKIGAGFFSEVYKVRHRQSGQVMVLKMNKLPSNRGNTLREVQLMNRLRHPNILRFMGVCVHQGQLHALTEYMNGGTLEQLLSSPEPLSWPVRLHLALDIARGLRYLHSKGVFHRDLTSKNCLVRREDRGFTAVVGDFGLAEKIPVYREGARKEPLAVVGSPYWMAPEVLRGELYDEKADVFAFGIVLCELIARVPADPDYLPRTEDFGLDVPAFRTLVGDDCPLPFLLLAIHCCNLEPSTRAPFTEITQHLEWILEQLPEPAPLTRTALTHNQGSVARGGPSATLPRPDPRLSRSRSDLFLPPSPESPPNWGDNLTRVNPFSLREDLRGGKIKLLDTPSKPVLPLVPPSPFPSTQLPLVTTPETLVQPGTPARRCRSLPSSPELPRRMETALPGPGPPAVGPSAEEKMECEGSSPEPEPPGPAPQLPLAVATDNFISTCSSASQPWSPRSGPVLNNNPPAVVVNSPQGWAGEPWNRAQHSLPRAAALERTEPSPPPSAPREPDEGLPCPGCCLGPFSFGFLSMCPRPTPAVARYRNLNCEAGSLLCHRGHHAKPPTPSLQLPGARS

CHEK1 (human), sequence (O14757 whole entry, looked up): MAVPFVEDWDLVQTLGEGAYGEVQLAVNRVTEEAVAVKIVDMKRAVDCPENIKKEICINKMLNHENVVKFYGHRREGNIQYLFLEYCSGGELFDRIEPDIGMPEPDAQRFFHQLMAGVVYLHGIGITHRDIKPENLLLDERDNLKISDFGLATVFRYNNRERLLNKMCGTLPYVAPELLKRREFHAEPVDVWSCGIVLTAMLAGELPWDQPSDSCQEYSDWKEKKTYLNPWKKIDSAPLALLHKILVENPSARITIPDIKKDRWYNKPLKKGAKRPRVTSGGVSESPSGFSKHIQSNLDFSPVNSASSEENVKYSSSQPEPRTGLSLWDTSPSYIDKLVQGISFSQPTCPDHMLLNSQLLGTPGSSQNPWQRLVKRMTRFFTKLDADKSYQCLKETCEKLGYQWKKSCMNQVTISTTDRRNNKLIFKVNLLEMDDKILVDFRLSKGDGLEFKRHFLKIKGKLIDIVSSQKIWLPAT
CHUK (human), sequence (O15111 whole entry, looked up): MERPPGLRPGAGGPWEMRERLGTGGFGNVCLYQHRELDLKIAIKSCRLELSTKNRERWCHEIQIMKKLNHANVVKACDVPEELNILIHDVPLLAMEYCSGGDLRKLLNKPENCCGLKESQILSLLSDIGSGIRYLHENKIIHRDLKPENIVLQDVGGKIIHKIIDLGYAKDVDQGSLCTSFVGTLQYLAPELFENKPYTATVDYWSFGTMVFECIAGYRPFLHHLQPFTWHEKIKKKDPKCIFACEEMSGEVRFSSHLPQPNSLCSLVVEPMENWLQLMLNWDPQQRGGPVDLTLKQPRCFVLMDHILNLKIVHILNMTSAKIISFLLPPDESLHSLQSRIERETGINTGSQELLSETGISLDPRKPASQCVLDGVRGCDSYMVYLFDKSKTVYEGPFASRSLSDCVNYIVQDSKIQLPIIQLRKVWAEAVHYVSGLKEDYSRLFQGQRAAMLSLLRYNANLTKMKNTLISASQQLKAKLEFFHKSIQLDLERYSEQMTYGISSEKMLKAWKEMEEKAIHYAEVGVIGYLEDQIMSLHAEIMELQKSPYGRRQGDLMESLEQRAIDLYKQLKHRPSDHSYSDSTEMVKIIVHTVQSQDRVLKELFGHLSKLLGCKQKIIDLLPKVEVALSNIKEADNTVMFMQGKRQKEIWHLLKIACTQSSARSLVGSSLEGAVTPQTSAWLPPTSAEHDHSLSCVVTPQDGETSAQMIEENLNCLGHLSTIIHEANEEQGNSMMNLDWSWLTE
CDKL1 (human), sequence (Q00532 whole entry, looked up): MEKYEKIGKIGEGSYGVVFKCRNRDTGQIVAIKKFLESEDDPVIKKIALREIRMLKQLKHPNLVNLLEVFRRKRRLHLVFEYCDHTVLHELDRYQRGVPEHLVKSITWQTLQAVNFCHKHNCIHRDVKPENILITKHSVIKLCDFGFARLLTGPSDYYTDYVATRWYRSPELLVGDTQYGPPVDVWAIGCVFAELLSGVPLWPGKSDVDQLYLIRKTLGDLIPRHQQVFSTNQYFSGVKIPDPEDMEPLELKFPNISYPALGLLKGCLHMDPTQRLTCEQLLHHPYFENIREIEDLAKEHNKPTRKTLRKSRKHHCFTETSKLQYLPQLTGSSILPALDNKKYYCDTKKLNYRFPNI

Work on `N#Cc1ccc2ncnc(NCCc3ccc4ccccc4c3)c2c1` yielded a kinase still bound, per cent of control (ACVR1B (human)) of 100%, a kinase still bound, per cent of control (BMX (human)) of 97% and a kinase still bound, per cent of control (CAMK4 (human)) of 100%. The kinase still bound, per cent of control (CDC42BPA (human)) was 100%, the kinase still bound, per cent of control (CDK8 (human)) was 8.7% and the kinase still bound, per cent of control (CDKL1 (human)) was 100%. The kinase still bound, per cent of control (CHEK1 (human)) was 97%, the kinase still bound, per cent of control (CHUK (human)) was 74% and the kinase still bound, per cent of control (CSNK1D (human)) was 99%. The kinase still bound, per cent of control (CSNK1E (human)) was 100%, the kinase still bound, per cent of control (CSNK2A1 (human)) was 92% and the kinase still bound, per cent of control (DSTYK (human)) was 61%. The kinase still bound, per cent of control (DYRK2 (human)) was 85%, the kinase still bound, per cent of control [1] was 100% and the kinase still bound, per cent of control [2] was 87%. For the same molecule, the kinase still bound, per cent of control [3] was 100%, the kinase still bound, per cent of control (HCK (human)) was 88% and the kinase still bound, per cent of control (HIPK4 (human)) was 81%. For the same molecule, the kinase still bound, per cent of control (IRAK3 (human)) was 82%, the kinase still bound, per cent of control [4] was 95% and the kinase still bound, per cent of control (LTK (human)) was 99%. The kinase still bound, per cent of control (MAP2K3 (human)) was 86%, the kinase still bound, per cent of control (MET (human)) was 100% and the kinase still bound, per cent of control (MKNK1 (human)) was 64%. For the same molecule, the kinase still bound, per cent of control (MLTK (human)) was 100%, the kinase still bound, per cent of control (NTRK2 (human)) was 98% and the kinase still bound, per cent of control (PDGFRA (human)) was 92%. The kinase still bound, per cent of control (PDPK1 (human)) was 100%, the kinase still bound, per cent of control (PHKG2 (human)) was 100% and the kinase still bound, per cent of control [5] was 92%. The kinase still bound, per cent of control [6] was 93%, the kinase still bound, per cent of control (PIP4K2B (human)) was 100% and the kinase still bound, per cent of control (PIP4K2C (human)) was 91%. The kinase still bound, per cent of control (PIP5K1A (human)) was 100%, the kinase still bound, per cent of control (PRKACA (human)) was 100% and the kinase still bound, per cent of control (PRKCD (human)) was 91%. The kinase still bound, per cent of control [7] was 100%, the kinase still bound, per cent of control (RIOK2 (human)) was 94% and the kinase still bound, per cent of control (SGK110 (human)) was 79%. For the same molecule, the kinase still bound, per cent of control (STK24 (human)) was 92%, the kinase still bound, per cent of control (STK38L (human)) was 90% and the kinase still bound, per cent of control (STK4 (human)) was 100%. It also gave a kinase still bound, per cent of control (TESK1 (human)) of 100%.
